This is an account of results in patent US9862754B2, “Peptide analogs for treating diseases and disorders” (KeyBioscience AG, priority 2011, dated 2018).

Type in all cases: in vivo, rat
A short description of assay [1]: Example 1: fasting glycaemia in DIO rats. Conditions: following 2 and 4 weeks of treatment, 1 mg/kg p.o. b.i.d. How it is done: (§1) The study was performed in male Levin-DIO rats (diet-sensitive) and Levin-DR (diet-resistant) (TacLevin: CD (SD) DIO) (Taconic, Hudson, N.Y., U.S.A.) obtained at age 6-7 weeks. On arrival, DIO rats were given high fat diet (60 kcal %) (#D12495, Research Diets Inc., New Brunswick, N.J., USA) and kept on the same diet for 16 weeks prior to and during the experiment. DR rats were given low-fat diet and served as control group. Animals were pair-wise housed throughout the study. Rats were handled and pre-dosed once daily with MilliQ H2O for 2-3 weeks prior to experimental start to reduce stress-induced hyperglycaemia. Baseline parameters were recorded in an fasting (6 h) condition. Rats were randomized into treatment groups based on fasting body weight (BW) and fasting plasma glucose (FPG). Body weight, food and water intake were recorded once weekly during the study period.
Blood sampling and glycemia were measured by heated tail venous puncture.
Whole blood glucose levels were determined with an ACCU-CHEK® Avia blood glucose meter (Roche Diagnostics, Rotkreuz, Switzerland). Blood (approx 300 ul) is collected in 1 ml MiniCollect K3EDTA plasma-tube (Greiner-Bio-One GmbH, Frickenhausen, Germany), inverted, and stored on ice. Tubes are centrifuged 3000×g (5000 rpm in table centrifuge) for 10 min at 4° C. and plasma obtained. Plasma samples are stored at −20° C. until analysis. […]

A short description of assay [2]: Example 1: chronic oral treatment, body weight and food intake in DIO rats. Conditions: for body weight: 4 weeks, vs oral vehicle (mimetic also vs oral sCT); for body weight / cumulative food intake: study end; for body weight / food intake: 1 mg/kg p.o. b.i.d. with 150 mg/kg 5-CNAC; for food intake: first week of treatment; for food intake / cumulative food intake: vs oral vehicle; for cumulative food intake: four weeks of treatment, 1 mg/kg p.o. b.i.d. How it is done:
as §1
Oral sCT or calcitonin mimetic 1 solution was prepared on the day of dosing by mixing a carrier with the given compound based on the following calculations:
Animals treated with oral sCT or oral calcitonin mimetic 1 received doses of 1.0 mg/kg combined with 150 mg/kg 5-CNAC—all dissolved in milliQ H20.
Drug administration by per oral (p.o.) gavage b.i.d. (7-8 am and 3-4 pm) during the study period and as single dose in the morning prior to start of OGTT.
(§2) Statistical analysis was performed by one-way ANOVA followed by the Dunnett's post hoc test for multiple comparison. Student's t-test was performed to compare two paired group. All analysis was performed using GRAPHPAD PRISM software (GraphPad Prism, San Diego, Calif. U.S.A). Incremental area under curve (iAUC) during OGTT was calculated by the trapezoidal method. A value of P<0.05 was considered to be significant. All data are presented as mean±standard error of the mean (SEM).
One dose of oral sCT/calcitonin mimetic 1 containing 1 mg/kg compound was applied by gavage twice daily to four groups of rats for 4 weeks. An oral vehicle group served as dosing regimen control, respectively. * P<0.05, ** P<0.01, *** P<0.001 vs Vehicle. Results are presented as means±SEM.

Assay [3] in a line: Example 3: short-term oral treatment, body weight and food intake in DIO rats. How it is done: as §1, with “diet for 12 weeks prior” for “diet for 16 weeks prior”, “reduce stress-induced hyperglycemia. On the day prior to study start animals were given a single dose of vehicle. Baseline parameters” for “reduce stress-induced hyperglycaemia. Baseline parameters”, “in an overnight fasting (16” for “in an fasting (6”, “overnight fasting (16 h) condition.” for “an fasting (6 h) condition.”, “were recorded prior to and at study end.” for “were recorded once weekly during the study period.”, “at study end.” for “the study period.”
Animals treated with oral sCT or oral UGP284/UGP298/UGP302 received doses of 0.5 mg/kg, 1.0 mg/kg or 2.0 mg/kg combined with 150 mg/kg 5-CNAC—all dissolved in milliQ H2O.
(§3) Drug administration were given by per oral (p.o.) gavage b.i.d. during the study period and as single dose in the morning prior to start of OGTT.
Following the initial (1st) OGTT, animals were randomized into treatment groups based on FBG and BW. Animals were pre-treated 3 days (b.i.d.) prior to 2nd OGTT. The study was performed in an x-over design with each animal being its own control.
as §2
FIG. 9A, FIG. 9B, FIG. 9C, FIG. 9D, FIG. 9E, and FIG. 9F show the effect of three different doses of oral sCT/UGP284/UGP298/UGP302 containing 0.5, 1 and 2 mg/kg compound were applied by gavage twice daily to 4 groups of rats for 3 days. * P<0.05, ** P<0.01 vs oral sCT. Results are presented as means±SEM.

Assay [4] is described as follows: Example 2: short-term oral treatment, body weight and food intake in DIO rats. Conditions: for food intake: 0.5, 1 and 2 mg/kg p.o. b.i.d. for 3 days; for body weight: 0.5, 1 and 2 mg/kg p.o. b.i.d. for 3 days with 150 mg/kg 5-CNAC. How it is done: as §1, with “diet for 12 weeks prior” for “diet for 16 weeks prior”, “stress-induced hyperglycaemia. On the day prior to study start animals were given a single dose of vehicle. Baseline parameters” for “stress-induced hyperglycaemia. Baseline parameters”, “in an overnight fasting (16” for “in an fasting (6”, “overnight fasting (16 h) condition.” for “an fasting (6 h) condition.”, “were recorded prior to and at study end.” for “were recorded once weekly during the study period.”, “at study end.” for “the study period.”
Animals treated with oral sCT or oral calcitonin mimetic 1 received doses of 0.5 mg/kg, 1.0 mg/kg or 2.0 mg/kg combined with 150 mg/kg 5-CNAC—all dissolved in milliQ H20.
as §3
Following the initial (1st) OGTT, animals are randomized into treatment groups based on FBG and BW. Animals will be pre-treated 3 days (b.i.d.) prior to 2nd OGTT. Dosing will be performed in the morning (7-8 am) and afternoon (3-4 pm).
The study was performed in an x-over design with each animal being its own control.
Three different doses of oral sCT/calcitonin mimetic 1 containing 0.5, 1 and 2 mg/kg compound were applied by gavage twice daily to 4 groups of rats for 3 days. * P<0.05, ** P<0.01 vs oral sCT.

Bridge positions count the residues as written; N and C are the ends. Ends that are not written are not given here.

Take “Ac-CSNLSTCVLGKLSQELHKLQTYPRTDVGANAP-NH2 (Ac-CSNLSTCVLGKLSQELHKLQTYPRTDVGANAP-NH2; ends and bridges not checked) [UGP302, calcitonin mimetic]”: in assay [1], the fasting glycaemia entry is recorded as “trend towards superiority in fasting glycaemia”. In addition, the figures for the body weight result in assay [2] and in assay [4] were “more pronounced significant reduction in body weight” and “dose-dependent superiority to oral sCT”, respectively. In addition, the figures for the food intake entry in assay [2] and in assay [4] were “significantly reduced food intake” and “trended dose-dependently reduced compared to oral sCT”, respectively. The cumulative food intake entry in assay [2] is given as “significantly reduced”. Besides, the “reduction in body weight vs oral sCT at same dose” value in assay [3] (0.5 mg/kg p.o. b.i.d. for 3 days, DIO rats) is “significantly difference to oral sCT 0.5 mg/kg”; in assay [4] (0.5 mg/kg p.o. b.i.d. for 3 days), “significantly difference to oral sCT 0.5 mg/kg”. In assay [3] (0.5, 1 and 2 mg/kg doses p.o., male DIO rats), the “energy balance vs equivalent doses of oral sCT” value is “superiority to equivalent doses of oral sCT”.

As to “salmon calcitonin (CSNLSTCVLGKLSQELHKLQTYPRTNTGSGTP-NH2; disulfide 1-7; ends not checked) [sCT, reference compound]”, in assay [1], the fasting glycaemia result was “not significantly different from oral vehicle”. The body weight result in assay [2] was “significantly reduced body weight from baseline”; in assay [3] (0.5, 1 and 2 mg/kg p.o. b.i.d. for 3 days with 150 mg/kg 5-CNAC, DIO rats) it was “dose-dependently decreased”; in assay [4] it was “dose-dependently decreased”. Besides, the food intake entry in assay [2] was “significantly reduced food intake”; in assay [3] (0.5, 1 and 2 mg/kg p.o. b.i.d. for 3 days, DIO rats) it was “dose-dependently decreased”; in assay [4], “dose-dependently decreased”. Also, in assay [2], the cumulative food intake entry is reported as “lack of difference”.
